Experimental findings from patent US20110190399A1 (priority 2008, published 2011) are described below.

One data set concerns hemozoin synthesis. The data set can be described thus: In vivo inhibition of hemozoin synthesis in P. yoelii infected mice. Conditions: oral, 3 days, curcumin fed bound to chitosan nanoparticles. As to the method:
Infected mice were divided into 4 groups (each having 4 mice), namely: • 1. Control group which was further sub-divided into the infected control group, olive oil control group and chitosan control group • 2. Infected and fed with Chloroquinine (1.7 mg in 100 μl of normal saline/mouse/day orally) • 3. […] Infected and fed with Chitosan nanoparticles (200 micrograms of chitosan/day) orally
Red blood cells were purified on the third day of treatment. […] The cells were centrifuged at 10,000 g for 10 min, supernatant was discarded and the pellet washed in 1 ml of 0.1 M alkaline bicarbonate buffer (pH 9.2).

A short description of data set [1]: Effect on kidney function in human volunteers. In kind it is in vivo. The settings on record: 500 mg/day/person orally.
The nature of data set [2]: Effect on fasting blood sugar levels in human volunteers. Format: in vivo. Conditions: 500 mg/day/person orally, 15 days. An excerpt: The results of the analysis are depicted in FIG. 11.
Data set [3] is described as follows: Effect on globulin level, eosinophils, neutrophils and platelet count of human volunteers. Conditions: 500 mg/day/person orally, 15 days. In kind it is in vivo.
Data set [4] in a line: Effect on liver inflammation in human volunteers. Format: in vivo. Conditions: 500 mg/day/person orally, 15 days. An excerpt:
Results of said tests are depicted in FIGS. 15.1-15.5.

Data set [5] can be described thus: Effect on hemoglobin and RBC level of human volunteers. In kind it is in vivo. The settings on record: 500 mg/day/person orally, 15 days.

In the case of `CCN(CC)CCCC(C)Nc1ccnc2cc(Cl)ccc12` (stereo not shown) [chloroquine], the “hemozoin formation in vivo” value in the data set with hemozoin synthesis was “inhibited hemozoin formation in vivo”.

Turning to `COc1cc(/C=C/C(=O)CC(=O)/C=C/c2ccc(O)c(OC)c2)ccc1O` [curcumin, Curcumin], the “change in potassium level” value in data set [1] (human volunteers (7), 15 days) was “increase”. The “change in serum creatinine and urea levels” value in data set [1] (human volunteers, 15 days) was “slight decrease”. Also, in data set [1] (human volunteers, before and after 15 days), the “serum creatinine, urea and potassium levels” value is reported as “within the normal range”. In addition, in data set [2], the fasting glucose level entry is “not altered”. Besides, the “levels of eosinophiles, neutrophils and platelets” value in data set [3] is listed as “no significant effect”. In addition, in data set [4], the “ALP and Bilirubin levels” value is recorded as “in the normal range except in one or two cases”; the “adverse effect on liver function” value is given as “do not have any adverse effect on liver function”. Moreover, the “blood hemoglobin and RBCs (anemic condition, RBC counts)” value in data set [5] is given as “no adverse effect”. In addition, in the data set on hemozoin synthesis, the “hemozoin formation in vivo” value is listed as “inhibited hemozoin formation in vivo”.
